Reference: patent US12421253B2 (Mirati Therapeutics, Inc., priority 2020, dated 2025)

How the values were obtained:
KRas^WT = molecular target: T1, KRas^WT (Homo sapiens, UniProt P01116); assay: KRas binding assay (TR-FRET displacement of Cy5 labelled tracer)
T1 construct: […]; biotin (biotinylated); purchased Accelegan Inc
Protocol: (§1) The ability of a compound to bind to KRas was measured using a TR-FRET displacement assay. […] After a 60-minute incubation at room temperature, the reaction was measured using a BMG LABTECH CLARIO star Plus via TR-FRET. […] The POC values were fit to a 4-parameter IC50 equation and the IC50 value reported.

KRas^G12A = molecular target: T2, KRas^G12A (Homo sapiens, UniProt P01116, G12A); assay: as above
T2 construct: […]; biotin (biotinylated); purchased Accelegan Inc
Protocol: as §1

KRas^G12D = molecular target: T3, KRas^G12D (Homo sapiens, UniProt P01116, G12D); assay: as above
T3 construct: […]; biotin (biotinylated); purchased Accelegan Inc
T3 sequence (P01116 1-169 isoform P01116-2 G12D): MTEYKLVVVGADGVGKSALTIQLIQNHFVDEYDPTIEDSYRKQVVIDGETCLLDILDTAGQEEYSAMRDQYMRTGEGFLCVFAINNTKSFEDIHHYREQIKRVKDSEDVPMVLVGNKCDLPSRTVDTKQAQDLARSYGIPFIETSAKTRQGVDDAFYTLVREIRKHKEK
Protocol: as §1

KRas^G12R = molecular target: T4, KRas^G12R (Homo sapiens, UniProt P01116, G12R); assay: as above
T4 construct: […]; biotin (biotinylated); purchased Accelegan Inc
T4 sequence (P01116 1-169 isoform P01116-2 G12R): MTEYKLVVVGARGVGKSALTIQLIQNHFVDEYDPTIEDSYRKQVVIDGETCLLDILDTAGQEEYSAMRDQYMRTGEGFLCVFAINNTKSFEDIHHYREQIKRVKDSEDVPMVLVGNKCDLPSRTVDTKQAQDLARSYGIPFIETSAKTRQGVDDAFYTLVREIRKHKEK
Protocol: as §1

KRas^G12S = molecular target: T5, KRas^G12S (Homo sapiens, UniProt P01116, G12S); assay: as above
T5 construct: […]; biotin (biotinylated); purchased Accelegan Inc
T5 sequence (P01116 1-169 isoform P01116-2 G12S): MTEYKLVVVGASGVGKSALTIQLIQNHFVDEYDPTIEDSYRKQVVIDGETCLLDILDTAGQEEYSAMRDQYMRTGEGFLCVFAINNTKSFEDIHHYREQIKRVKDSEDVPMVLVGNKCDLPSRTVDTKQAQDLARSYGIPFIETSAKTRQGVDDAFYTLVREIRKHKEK
Protocol: as §1

KRas^G12V = molecular target: T6, KRas^G12V (Homo sapiens, UniProt P01116, G12V); assay: as above
T6 construct: […]; biotin (biotinylated); purchased Accelegan Inc
T6 sequence (P01116 1-169 isoform P01116-2 G12V): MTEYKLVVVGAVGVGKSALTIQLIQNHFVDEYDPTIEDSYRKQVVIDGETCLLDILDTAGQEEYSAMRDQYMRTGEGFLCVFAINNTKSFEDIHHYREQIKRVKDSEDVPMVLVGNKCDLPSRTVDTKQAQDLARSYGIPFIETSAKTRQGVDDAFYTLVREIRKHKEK
Protocol: as §1

KRas^G12C = KRas^G12C (Homo sapiens, UniProt P01116, G12C); assay: biochemical
Sequence of KRas^G12C (P01116 1-169 isoform P01116-2 G12C): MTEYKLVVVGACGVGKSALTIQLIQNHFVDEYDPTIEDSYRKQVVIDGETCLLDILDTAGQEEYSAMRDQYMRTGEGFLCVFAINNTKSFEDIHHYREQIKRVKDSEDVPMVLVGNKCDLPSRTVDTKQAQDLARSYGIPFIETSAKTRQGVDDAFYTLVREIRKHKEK
Protocol: as §1

KRas^G13D = KRas^G13D (Homo sapiens, UniProt P01116, G13D); assay: biochemical
Sequence of KRas^G13D (P01116 1-169 isoform P01116-2 G13D): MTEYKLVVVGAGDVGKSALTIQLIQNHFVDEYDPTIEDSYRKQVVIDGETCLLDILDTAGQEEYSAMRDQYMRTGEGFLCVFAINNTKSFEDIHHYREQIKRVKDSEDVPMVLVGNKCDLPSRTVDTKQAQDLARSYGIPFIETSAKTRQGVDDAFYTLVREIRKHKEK
Protocol: as §1

KRas^Q61H = KRas^Q61H (Homo sapiens, UniProt P01116, Q61H); assay: biochemical
Sequence of KRas^Q61H (P01116 1-169 isoform P01116-2 Q61H): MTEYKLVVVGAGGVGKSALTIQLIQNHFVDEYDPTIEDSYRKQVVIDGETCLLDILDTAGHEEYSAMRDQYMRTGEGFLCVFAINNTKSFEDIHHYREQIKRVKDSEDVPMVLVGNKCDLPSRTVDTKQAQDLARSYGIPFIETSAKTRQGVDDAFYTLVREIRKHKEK
Protocol: as §1

T1 sequence (P01116 1-169 isoform P01116-2): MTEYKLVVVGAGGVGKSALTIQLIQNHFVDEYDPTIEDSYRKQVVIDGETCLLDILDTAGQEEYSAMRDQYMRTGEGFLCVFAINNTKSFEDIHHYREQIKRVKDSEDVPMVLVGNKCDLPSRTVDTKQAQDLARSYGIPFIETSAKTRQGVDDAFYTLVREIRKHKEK
T2 sequence (P01116 1-169 isoform P01116-2 G12A): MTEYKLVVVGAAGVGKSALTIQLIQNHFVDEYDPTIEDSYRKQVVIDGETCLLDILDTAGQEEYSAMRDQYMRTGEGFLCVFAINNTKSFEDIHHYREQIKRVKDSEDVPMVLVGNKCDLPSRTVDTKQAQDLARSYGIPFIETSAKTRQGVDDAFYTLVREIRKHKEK

SMILES	IC50 (KRas^WT) [µM]	IC50 (KRas^G12A) [µM]	IC50 (KRas^G12D) [µM]	IC50 (KRas^G12R) [µM]	IC50 (KRas^G12S) [µM]	IC50 (KRas^G12V) [µM]	IC50 (KRas^G12C) [µM]	IC50 (KRas^G13D) [µM]	IC50 (KRas^Q61H) [µM]
CCc1cccc2cccc(N3CCc4c(nc(OCC56CCCN5CCC6)nc4N(C)Cc4c[nH]nn4)C3)c12 [Example 127, N-((1H-1,2,3-triazol-4-yl)methyl)-7-(8-ethylnaphthalen-1-yl)-N-methyl-2-((tetrahydro-1H-pyrrolizin-7a(5H)-yl)methoxy)-5,6,7,8-tetrahydropyrido[3,4-d]pyrimidin-4-amine]	1.54	2.07	2.04	1.36	1.4	0.739	1.15	1.83	1.75
CCc1cccc2cccc(N3CCc4c(nc(OCC56CCCN5CCC6)nc4N4CC(O)C(O)C(O)C4)C3)c12 (stereo not drawn) [Example 101, 1-(7-(8-ethylnaphthalen-1-yl)-2-((tetrahydro-1H-pyrrolizin-7a(5H)-yl)methoxy)-5,6,7,8-tetrahydropyrido[3,4-d]pyrimidin-4-yl)piperidine-3,4,5-triol]	0.515	0.487	1.21	0.4	0.383	0.546	0.355	0.673	0.74
CCc1cccc2cccc(N3CCc4c(nc(OCC56CCCN5CCC6)nc4N4CCCC(c5cc(=O)[nH][nH]5)C4)C3)c12 (stereo not drawn) [Example 87, 5-(1-(7-(8-ethylnaphthalen-1-yl)-2-((tetrahydro-1H-pyrrolizin-7a(5H)-yl)methoxy)-5,6,7,8-tetrahydropyrido[3,4-d]pyrimidin-4-yl)piperidin-3-yl)-1,2-dihydro-3H-pyrazol-3-one]	1.01	1.14	4.88	0.165	1.15	1.87	0.47	1.47	0.844
CCc1cccc2cccc(N3CCc4c(nc(OCC56CCCN5CCC6)nc4NC4CN(C(N)=O)C4)C3)c12 [Example 147, 3-((7-(8-ethylnaphthalen-1-yl)-2-((tetrahydro-1H-pyrrolizin-7a(5H)-yl)methoxy)-5,6,7,8-tetrahydropyrido[3,4-d]pyrimidin-4-yl)amino)azetidine-1-carboxamide]	2.45	2.71	1.32	1.49	2.15	1.45	1.65	3.63	3.21
CCc1cccc2cccc(N3CCc4c(nc(OCC56CCCN5CCC6)nc4N4CCCC(c5nc(C)c(C(=O)NC6CCC6)o5)C4)C3)c12 (stereo not drawn) [Example 140, N-cyclobutyl-2-(1-(7-(8-ethylnaphthalen-1-yl)-2-((tetrahydro-1H-pyrrolizin-7a(5H)-yl)methoxy)-5,6,7,8-tetrahydropyrido[3,4-d]pyrimidin-4-yl)piperidin-3-yl)-4-methyloxazole-5-carboxamide]	1.92	1.66	5.21	1.44	2	2.38	1.18	1.76	2.23
CCc1cccc2cccc(N3CCc4c(nc(OCC56CCCN5CCC6)nc4N4CCCC(c5nc(C)no5)C4)C3)c12 (stereo not drawn) [Example 162, 5-(1-(7-(8-ethylnaphthalen-1-yl)-2-((tetrahydro-1H-pyrrolizin-7a(5H)-yl)methoxy)-5,6,7,8-tetrahydropyrido[3,4-d]pyrimidin-4-yl)piperidin-3-yl)-3-methyl-1,2,4-oxadiazole]	4.08	5.22	7.51	2.79	3.43	8.35	3.79	3.41	3.98
CCc1cccc2cccc(N3CCc4c(nc(OCC56CCCN5CCC6)nc4NC4CCc5ncsc5C4)C3)c12 (stereo not drawn) [Example 168, N-(7-(8-ethylnaphthalen-1-yl)-2-((tetrahydro-1H-pyrrolizin-7a(5H)-yl)methoxy)-5,6,7,8-tetrahydropyrido[3,4-d]pyrimidin-4-yl)-4,5,6,7-tetrahydrobenzo[d]thiazol-6-amine]	15	11.1	26.4	4.95	9.63	7.12	5.39	21.9	14.6
CCc1cccc2cccc(N3CCc4c(nc(OCC56CCCN5CCC6)nc4N4CCCC(N5CCCS5(=O)=O)C4)C3)c12 (stereo not drawn) [Example 85, 2-(1-(7-(8-ethylnaphthalen-1-yl)-2-((tetrahydro-1H-pyrrolizin-7a(5H)-yl)methoxy)-5,6,7,8-tetrahydropyrido[3,4-d]pyrimidin-4-yl)piperidin-3-yl)isothiazolidine 1,1-dioxide]	0.14	0.223	1.03	0.399	0.263	0.491	0.274	0.186	0.213
CCc1cccc2cccc(N3CCc4c(nc(OCC56CCCN5CCC6)nc4N4CC(C)CC(C(N)=O)C4)C3)c12 (stereo not drawn) [Example 105, 1-(7-(8-ethylnaphthalen-1-yl)-2-((tetrahydro-1H-pyrrolizin-7a(5H)-yl)methoxy)-5,6,7,8-tetrahydropyrido[3,4-d]pyrimidin-4-yl)-5-methylpiperidine-3-carboxamide]	0.469	0.382	0.607	0.461	0.385	0.368	0.457	0.566	0.6
CCc1cccc2cccc(N3CCc4c(nc(OCC56CCCN5CCC6)nc4N4CCC(O)CC(C)C4)C3)c12 (stereo not drawn) [Example 92, 1-(7-(8-ethylnaphthalen-1-yl)-2-((tetrahydro-1H-pyrrolizin-7a(5H)-yl)methoxy)-5,6,7,8-tetrahydropyrido[3,4-d]pyrimidin-4-yl)-6-methylazepan-4-ol]	0.232	0.303	0.532	0.279	0.342	0.295	0.348	0.247	0.325
CCc1cccc2cccc(N3CCc4c(nc(OCC56CCCN5CCC6)nc4N(C)CC(C)(C)O)C3)c12 [Example 113, 1-((7-(8-ethylnaphthalen-1-yl)-2-((tetrahydro-1H-pyrrolizin-7a(5H)-yl)methoxy)-5,6,7,8-tetrahydropyrido[3,4-d]pyrimidin-4-yl)(methyl)amino)-2-methylpropan-2-ol]	0.509	0.464	0.843	0.756	0.601	0.45	0.418	0.654	0.523
CCc1cccc2cccc(N3CCc4c(nc(OCC56CCCN5CCC6)nc4N4CCCN(C(=O)c5ccco5)CC4)C3)c12 [Example 102, (4-(7-(8-ethylnaphthalen-1-yl)-2-((tetrahydro-1H-pyrrolizin-7a(5H)-yl)methoxy)-5,6,7,8-tetrahydropyrido[3,4-d]pyrimidin-4-yl)-1,4-diazepan-1-yl)(furan-2-yl)methanone]	0.357	0.805	15	3.08	3.09	6.45	2.99	0.363	0.424
CCc1cccc2cccc(N3CCc4c(nc(OCC56CCCN5CCC6)nc4NCc4c5c(n[nH]c4=O)CCCC5)C3)c12 [Example 155, 4-(((7-(8-ethylnaphthalen-1-yl)-2-((tetrahydro-1H-pyrrolizin-7a(5H)-yl)methoxy)-5,6,7,8-tetrahydropyrido[3,4-d]pyrimidin-4-yl)amino)methyl)-5,6,7,8-tetrahydrocinnolin-3(2H)-one]	3.17	1.86	22.4	4.92	3.4	7.31	4.42	4.86	4.67
CCc1cccc2cccc(N3CCc4c(nc(OCC56CCCN5CCC6)nc4N4CCCn5nc(N)cc5C4)C3)c12 [Example 10, 5-(7-(8-ethylnaphthalen-1-yl)-2-((tetrahydro-1H-pyrrolizin-7a(5H)-yl)methoxy)-5,6,7,8-tetrahydropyrido[3,4-d]pyrimidin-4-yl)-5,6,7,8-tetrahydro-4H-pyrazolo[1,5-a][1,4]diazepin-2-amine]	0.171	0.169	0.067	0.074	0.101	0.081	0.081	0.375	0.291
CCc1cccc2cccc(N3CCc4c(nc(OCC56CCCN5CCC6)nc4N4CCCn5nc(C)cc5C4)C3)c12 [Example 56, 7-(8-ethylnaphthalen-1-yl)-2-((hexahydro-1H-pyrrolizin-7a-yl)methoxy)-4-(2-methyl-7,8-dihydro-4H-pyrazolo[1,5-a][1,4]diazepin-5(6H)-yl)-5,6,7,8-tetrahydropyrido[3,4-d]pyrimidine]	5.12	3.01	0.874	1.81	2.03	1.62	1.65	5.72	5.56
